Data: ChEMBL document CHEMBL1201862, “PubChem BioAssay data set” (2004)
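Method: 48-hour compound exposure of cells in 96-well plates, five concentrations, linear interpolation of endpoints. At the GI50, growth is halved.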 Calls of active or inactive are those of the source. No stated cut-off is given here; in the data, active = GI50 up to about 1.1 µM and inactive = higher.

What was measured:
Experiment in all cases: inhibition of tumour cell growth, NCI panel, 48 h
[1] = tested on: A498
[2] = tested on: COLO 205
[3] = tested on: EKVX
[4] = tested on: HCT-116
[5] = tested on: HCT-15
[6] = tested on: HOP-62
[7] = tested on: IGROV-1
[8] = tested on: MCF7
[9] = tested on: MOLT-4
[10] = tested on: NCI-H226
[11] = tested on: RPMI-8226
[12] = tested on: SF-539
[13] = tested on: SK-MEL-28
[14] = tested on: SK-MEL-2
[15] = tested on: SK-OV-3
[16] = tested on: SN12C
[17] = tested on: SNB-19
[18] = tested on: SW-620
[19] = tested on: UACC-62
[20] = tested on: HOP-92

O=C(Nc1ccccc1F)c1c(O)nc2sccn2c1=O
GI50 [1]: > 10 µM (inactive)
GI50 [2]: > 10 µM (inactive)
GI50 [3]: > 10 µM (inactive)
GI50 [4]: > 10 µM (inactive)
GI50 [5]: > 10 µM
GI50 [6]: > 10 µM (inactive)
GI50 [7]: > 10 µM (inactive)
GI50 [8]: > 10 µM (inactive)
GI50 [9]: > 10 µM (inactive)
GI50 [10]: > 10 µM (inactive)
GI50 [11]: > 10 µM (inactive)
GI50 [12]: > 10 µM (inactive)
GI50 [13]: > 10 µM (inactive)
GI50 [14]: > 10 µM (inactive)
GI50 [15]: > 10 µM (inactive)
GI50 [16]: > 10 µM (inactive)
GI50 [17]: > 10 µM (inactive)
GI50 [18]: > 10 µM (inactive)
GI50 [19]: > 10 µM (inactive)

CNC(=O)SCC(N)C(=O)O (stereo unspecified)
GI50 [1]: > 100 µM (inactive)
GI50 [2]: 61.1 µM (inactive)
GI50 [3]: > 100 µM (inactive)
GI50 [4]: > 79.4 µM (inactive)
GI50 [5]: 46 µM
GI50 [6]: > 100 µM (inactive)
GI50 [20]: 51.9 µM (inactive)
GI50 [7]: > 100 µM (inactive)
GI50 [8]: > 100 µM (inactive)
GI50 [9]: 38.2 µM (inactive)
GI50 [10]: > 84.7 µM (inactive)
GI50 [11]: 25.4 µM (inactive)
GI50 [12]: > 100 µM (inactive)
GI50 [13]: > 100 µM (inactive)
GI50 [14]: > 82 µM (inactive)
GI50 [15]: > 100 µM (inactive)
GI50 [16]: > 95.9 µM (inactive)
GI50 [17]: > 100 µM (inactive)
GI50 [18]: > 85.9 µM (inactive)
GI50 [19]: > 94.8 µM (inactive)

CCOC(=O)CSc1nc(N)c2c(-c3ccc(OC)c(OC)c3)c3c(nc2n1)CCCC3
GI50 [2]: > 100 µM (inactive)
GI50 [3]: 95.3 µM (inactive)
GI50 [4]: > 100 µM (inactive)
GI50 [5]: > 100 µM
GI50 [6]: 39 µM (inactive)
GI50 [7]: > 100 µM (inactive)
GI50 [8]: > 100 µM (inactive)
GI50 [9]: > 100 µM (inactive)
GI50 [11]: > 100 µM (inactive)
GI50 [13]: > 100 µM (inactive)
GI50 [15]: 26.9 µM (inactive)
GI50 [16]: > 100 µM (inactive)
GI50 [17]: 95.5 µM (inactive)
GI50 [18]: > 100 µM (inactive)
GI50 [19]: > 100 µM (inactive)

C[C@]12CC[C@@H]3c4ccc(OCCN5CCCC5)cc4CC[C@H]3[C@@H]1CCC2=O
GI50 [1]: 81.1 µM (inactive)
GI50 [2]: 8.41 µM (inactive)
GI50 [3]: 18.2 µM (inactive)
GI50 [5]: 6.35 µM
GI50 [6]: 18.6 µM (inactive)
GI50 [20]: 29 µM (inactive)
GI50 [7]: 12.4 µM (inactive)
GI50 [8]: 22.5 µM (inactive)
GI50 [9]: 22.4 µM (inactive)
GI50 [10]: 19.6 µM (inactive)
GI50 [11]: 23.7 µM (inactive)
GI50 [13]: 49.5 µM (inactive)
GI50 [14]: 17.6 µM (inactive)
GI50 [15]: 48.6 µM (inactive)
GI50 [17]: 64.3 µM (inactive)
GI50 [18]: 41 µM (inactive)
GI50 [19]: 23.8 µM (inactive)

CSc1nc(CO)c(CO)n1C
GI50 [1]: > 100 µM (inactive)
GI50 [2]: > 100 µM (inactive)
GI50 [3]: > 100 µM (inactive)
GI50 [4]: > 100 µM (inactive)
GI50 [5]: > 100 µM
GI50 [6]: > 100 µM (inactive)
GI50 [20]: > 100 µM (inactive)
GI50 [7]: > 100 µM (inactive)
GI50 [8]: > 100 µM (inactive)
GI50 [9]: > 100 µM (inactive)
GI50 [10]: > 100 µM (inactive)
GI50 [11]: > 100 µM (inactive)
GI50 [12]: > 100 µM (inactive)
GI50 [13]: > 100 µM (inactive)
GI50 [14]: > 100 µM (inactive)
GI50 [15]: > 100 µM (inactive)
GI50 [16]: > 100 µM (inactive)
GI50 [17]: > 100 µM (inactive)
GI50 [18]: > 100 µM (inactive)
GI50 [19]: > 100 µM (inactive)

COc1cc(-c2cc(=O)c3c(O)c(CC=C(C)C)c(O)cc3o2)ccc1O
GI50 [1]: > 50 µM (inactive)
GI50 [2]: > 50 µM (inactive)
GI50 [3]: 7.29 µM (inactive)
GI50 [4]: 16.2 µM (inactive)
GI50 [5]: 15 µM
GI50 [6]: 24.2 µM (inactive)
GI50 [20]: > 50 µM (inactive)
GI50 [7]: 24 µM (inactive)
GI50 [8]: 25.1 µM (inactive)
GI50 [9]: 16.3 µM (inactive)
GI50 [10]: > 50 µM (inactive)
GI50 [11]: 11.7 µM (inactive)
GI50 [12]: 16.9 µM (inactive)
GI50 [13]: 1.17 µM (inactive)
GI50 [14]: 23.6 µM (inactive)
GI50 [15]: 32.3 µM (inactive)
GI50 [16]: > 50 µM (inactive)
GI50 [17]: > 50 µM (inactive)
GI50 [18]: 16.7 µM (inactive)
GI50 [19]: 23 µM (inactive)

Cn1c(=O)[nH]c2nncnc2c1=O
GI50 [1]: 87.1 µM (inactive)
GI50 [2]: 69.2 µM (inactive)
GI50 [3]: 40.5 µM (inactive)
GI50 [4]: 29.2 µM (inactive)
GI50 [5]: 299 µM
GI50 [6]: 34.4 µM (inactive)
GI50 [20]: 21.3 µM (inactive)
GI50 [7]: 29.2 µM (inactive)
GI50 [8]: 212 µM (inactive)
GI50 [9]: 181 µM (inactive)
GI50 [10]: 5.83 µM (inactive)
GI50 [11]: 77.4 µM (inactive)
GI50 [12]: 64.9 µM (inactive)
GI50 [13]: 474 µM (inactive)
GI50 [14]: 120 µM (inactive)
GI50 [15]: 146 µM (inactive)
GI50 [16]: 148 µM (inactive)
GI50 [17]: 51.2 µM (inactive)
GI50 [18]: 75 µM (inactive)
GI50 [19]: 44.4 µM (inactive)

Nc1cccc2c1C1=NNC(=O)CC1C2 (stereo unspecified)
GI50 [1]: > 100 µM (inactive)
GI50 [2]: > 100 µM (inactive)
GI50 [3]: > 76.6 µM (inactive)
GI50 [4]: > 100 µM (inactive)
GI50 [5]: > 100 µM
GI50 [6]: > 66.5 µM (inactive)
GI50 [20]: 2.51 µM (inactive)
GI50 [7]: > 100 µM (inactive)
GI50 [8]: > 100 µM (inactive)
GI50 [9]: > 100 µM (inactive)
GI50 [10]: > 100 µM (inactive)
GI50 [11]: > 100 µM (inactive)
GI50 [12]: > 100 µM (inactive)
GI50 [13]: > 100 µM (inactive)
GI50 [14]: > 100 µM (inactive)
GI50 [15]: > 100 µM (inactive)
GI50 [16]: > 100 µM (inactive)
GI50 [17]: > 100 µM (inactive)
GI50 [18]: > 100 µM (inactive)
GI50 [19]: > 100 µM (inactive)
